Test results published in ChEMBL document CHEMBL5465560, “Selectivity Literature for EUbOPEN Chemogenomic Library” (2024).

Assays:
[1] = target: T1, Ephrin type-A receptor 3 (Homo sapiens) (UniProt P29320); conditions: at 10 µM
T1 sequence (whole entry): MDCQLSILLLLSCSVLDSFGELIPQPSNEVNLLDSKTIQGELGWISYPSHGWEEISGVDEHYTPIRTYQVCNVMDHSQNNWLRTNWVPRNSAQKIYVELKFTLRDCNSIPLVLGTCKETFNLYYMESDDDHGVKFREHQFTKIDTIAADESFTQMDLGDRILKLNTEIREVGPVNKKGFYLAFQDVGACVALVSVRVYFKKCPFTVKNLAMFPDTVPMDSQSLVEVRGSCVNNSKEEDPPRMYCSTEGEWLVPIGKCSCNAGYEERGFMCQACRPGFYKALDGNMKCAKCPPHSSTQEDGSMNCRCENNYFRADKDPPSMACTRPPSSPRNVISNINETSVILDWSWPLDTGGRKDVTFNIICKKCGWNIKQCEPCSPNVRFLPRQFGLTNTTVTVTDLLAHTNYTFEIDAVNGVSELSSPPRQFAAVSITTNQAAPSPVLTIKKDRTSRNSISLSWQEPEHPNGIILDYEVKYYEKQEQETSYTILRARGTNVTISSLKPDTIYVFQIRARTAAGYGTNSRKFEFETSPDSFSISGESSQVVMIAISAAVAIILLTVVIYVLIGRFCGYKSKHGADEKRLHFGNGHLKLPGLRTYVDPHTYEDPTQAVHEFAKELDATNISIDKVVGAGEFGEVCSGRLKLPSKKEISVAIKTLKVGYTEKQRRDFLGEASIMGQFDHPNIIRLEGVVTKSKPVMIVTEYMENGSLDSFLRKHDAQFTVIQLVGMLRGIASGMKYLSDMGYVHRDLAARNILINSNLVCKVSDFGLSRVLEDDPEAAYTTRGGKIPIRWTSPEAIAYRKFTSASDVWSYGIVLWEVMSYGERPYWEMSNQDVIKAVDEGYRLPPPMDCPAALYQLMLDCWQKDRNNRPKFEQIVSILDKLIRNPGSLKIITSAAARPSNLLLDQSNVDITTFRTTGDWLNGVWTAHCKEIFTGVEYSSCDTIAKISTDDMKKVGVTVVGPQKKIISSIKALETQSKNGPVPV

[2] = target: Mitogen-activated protein kinase 8 (Homo sapiens, UniProt P45983); experiment: Selectivity interaction (KinomeScan (DiscoverX)) EUB0000229b MAPK8; conditions: at 10 µM
[3] = target: Tyrosine-protein kinase Lck (Homo sapiens, UniProt P06239); experiment: Selectivity interaction (KinomeScan (DiscoverX)) EUB0000229b LCK; conditions: at 10 µM
[4] = target: High affinity nerve growth factor receptor (Homo sapiens, UniProt P04629); experiment: Selectivity interaction (KinomeScan (DiscoverX)) EUB0000229b NTRK1; conditions: at 10 µM
[5] = target: Serine/threonine-protein kinase PLK3 (Homo sapiens, UniProt Q9H4B4); experiment: Selectivity interaction (Kinase panel (Z-LYTE Assay)) EUB0001632a PLK3; conditions: at 10 µM
[6] = target: Bromodomain-containing protein 4 (Homo sapiens, UniProt O60885); experiment: Selectivity interaction (Bromodomain panel (DSF asssay)) EUB0000270b BRD4
[7] = target: Casein kinase I isoform delta (Homo sapiens, UniProt P48730); experiment: Selectivity interaction (ActivX KiNativ screen (kinase selectivity in THP-1 cell lysates)) EUB0000639a CSNK1D; type: subcellular; conditions: lysate
[8] = target: T2, Serine/threonine-protein kinase LATS1 (Homo sapiens) (UniProt O95835); experiment: Selectivity interaction (ActivX KiNativ screen (kinase selectivity in THP-1 cell lysates)) EUB0000639a LATS1; type: subcellular; conditions: lysate, at 1 µM
T2 sequence (whole entry): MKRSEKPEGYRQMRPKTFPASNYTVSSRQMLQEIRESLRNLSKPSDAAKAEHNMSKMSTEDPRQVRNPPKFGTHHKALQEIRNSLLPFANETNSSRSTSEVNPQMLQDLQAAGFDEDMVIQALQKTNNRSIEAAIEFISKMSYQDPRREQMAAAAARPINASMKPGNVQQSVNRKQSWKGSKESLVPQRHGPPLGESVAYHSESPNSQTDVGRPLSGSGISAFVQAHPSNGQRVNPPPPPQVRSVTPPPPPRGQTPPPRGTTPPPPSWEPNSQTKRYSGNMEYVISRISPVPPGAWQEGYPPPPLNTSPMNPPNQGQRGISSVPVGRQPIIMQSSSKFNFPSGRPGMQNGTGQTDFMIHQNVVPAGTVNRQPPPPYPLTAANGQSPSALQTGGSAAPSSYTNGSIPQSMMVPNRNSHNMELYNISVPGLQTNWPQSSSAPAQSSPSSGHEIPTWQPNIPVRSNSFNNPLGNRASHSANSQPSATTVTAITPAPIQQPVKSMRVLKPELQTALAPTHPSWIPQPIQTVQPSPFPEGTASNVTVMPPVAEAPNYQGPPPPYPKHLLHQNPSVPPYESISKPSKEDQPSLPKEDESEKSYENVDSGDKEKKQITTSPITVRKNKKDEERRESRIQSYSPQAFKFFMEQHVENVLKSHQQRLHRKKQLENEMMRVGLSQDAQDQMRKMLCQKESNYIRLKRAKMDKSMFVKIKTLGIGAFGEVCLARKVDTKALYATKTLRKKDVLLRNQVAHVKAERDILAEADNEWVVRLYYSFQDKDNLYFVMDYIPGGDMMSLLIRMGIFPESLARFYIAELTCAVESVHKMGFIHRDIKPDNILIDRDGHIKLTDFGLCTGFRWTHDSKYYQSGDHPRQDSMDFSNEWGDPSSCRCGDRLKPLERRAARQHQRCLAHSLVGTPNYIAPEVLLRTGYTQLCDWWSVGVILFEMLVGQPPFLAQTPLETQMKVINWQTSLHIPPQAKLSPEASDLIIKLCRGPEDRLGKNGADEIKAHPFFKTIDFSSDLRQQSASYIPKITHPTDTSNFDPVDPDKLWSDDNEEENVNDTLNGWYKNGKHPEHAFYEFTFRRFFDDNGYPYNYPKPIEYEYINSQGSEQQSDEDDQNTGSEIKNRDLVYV

[9] = target: RAC-alpha serine/threonine-protein kinase (Homo sapiens, UniProt P31749); experiment: Selectivity interaction (KinomeScan (DiscoverX)) EUB0000045b AKT1
RAC-alpha serine/threonine-protein kinase, sequence (P31749 whole entry): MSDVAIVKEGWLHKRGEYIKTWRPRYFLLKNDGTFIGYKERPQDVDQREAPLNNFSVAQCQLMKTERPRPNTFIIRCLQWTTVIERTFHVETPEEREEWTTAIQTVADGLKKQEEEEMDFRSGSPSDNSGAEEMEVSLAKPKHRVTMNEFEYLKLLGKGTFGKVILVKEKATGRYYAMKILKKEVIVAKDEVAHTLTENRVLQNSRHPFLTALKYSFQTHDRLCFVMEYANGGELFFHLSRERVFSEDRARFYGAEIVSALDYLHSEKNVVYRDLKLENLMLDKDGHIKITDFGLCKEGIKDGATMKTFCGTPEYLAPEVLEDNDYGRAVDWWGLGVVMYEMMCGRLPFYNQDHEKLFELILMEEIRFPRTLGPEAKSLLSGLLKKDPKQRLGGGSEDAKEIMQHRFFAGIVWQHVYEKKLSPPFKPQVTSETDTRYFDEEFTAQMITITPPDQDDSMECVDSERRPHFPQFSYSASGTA

Casein kinase I isoform delta, sequence (P48730 whole entry, looked up, canonical isoform): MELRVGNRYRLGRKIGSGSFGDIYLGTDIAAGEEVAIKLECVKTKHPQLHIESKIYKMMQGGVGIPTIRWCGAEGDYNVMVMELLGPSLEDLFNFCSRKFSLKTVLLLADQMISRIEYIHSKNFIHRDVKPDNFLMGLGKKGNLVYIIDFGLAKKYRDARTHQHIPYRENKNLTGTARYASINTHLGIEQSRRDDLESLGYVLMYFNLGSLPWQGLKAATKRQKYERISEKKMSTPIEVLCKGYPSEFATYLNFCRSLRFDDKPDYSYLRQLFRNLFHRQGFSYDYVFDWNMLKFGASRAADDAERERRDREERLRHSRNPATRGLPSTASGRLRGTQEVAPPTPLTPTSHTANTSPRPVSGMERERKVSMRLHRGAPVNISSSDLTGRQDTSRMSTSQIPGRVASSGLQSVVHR
Mitogen-activated protein kinase 8, sequence (P45983 whole entry): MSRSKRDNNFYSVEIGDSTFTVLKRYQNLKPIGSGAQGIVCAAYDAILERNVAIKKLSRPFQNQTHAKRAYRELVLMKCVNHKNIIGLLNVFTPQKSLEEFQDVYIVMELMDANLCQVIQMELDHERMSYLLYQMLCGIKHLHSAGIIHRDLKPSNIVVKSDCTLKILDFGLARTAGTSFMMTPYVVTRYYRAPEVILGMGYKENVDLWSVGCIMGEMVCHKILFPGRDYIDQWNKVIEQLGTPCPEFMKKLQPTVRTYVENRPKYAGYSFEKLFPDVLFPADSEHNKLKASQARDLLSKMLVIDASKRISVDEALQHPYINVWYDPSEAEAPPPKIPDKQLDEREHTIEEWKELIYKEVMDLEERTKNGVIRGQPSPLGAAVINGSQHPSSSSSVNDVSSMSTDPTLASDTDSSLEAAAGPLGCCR
Tyrosine-protein kinase Lck, sequence (P06239 2-509 limits assumed): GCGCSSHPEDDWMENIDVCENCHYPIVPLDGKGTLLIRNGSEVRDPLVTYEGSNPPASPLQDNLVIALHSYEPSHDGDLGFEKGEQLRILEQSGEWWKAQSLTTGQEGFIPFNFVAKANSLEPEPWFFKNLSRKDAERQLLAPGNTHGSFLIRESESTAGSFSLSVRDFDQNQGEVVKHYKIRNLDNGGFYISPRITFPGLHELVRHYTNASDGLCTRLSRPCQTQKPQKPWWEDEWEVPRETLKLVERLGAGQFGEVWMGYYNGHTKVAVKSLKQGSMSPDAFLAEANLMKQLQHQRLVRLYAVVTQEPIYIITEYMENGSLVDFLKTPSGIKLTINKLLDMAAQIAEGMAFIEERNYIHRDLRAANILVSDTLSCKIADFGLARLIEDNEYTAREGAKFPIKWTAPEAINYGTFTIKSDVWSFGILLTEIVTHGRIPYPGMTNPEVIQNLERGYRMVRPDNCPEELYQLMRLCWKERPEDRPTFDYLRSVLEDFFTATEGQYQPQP
Serine/threonine-protein kinase PLK3, sequence (Q9H4B4 whole entry, looked up): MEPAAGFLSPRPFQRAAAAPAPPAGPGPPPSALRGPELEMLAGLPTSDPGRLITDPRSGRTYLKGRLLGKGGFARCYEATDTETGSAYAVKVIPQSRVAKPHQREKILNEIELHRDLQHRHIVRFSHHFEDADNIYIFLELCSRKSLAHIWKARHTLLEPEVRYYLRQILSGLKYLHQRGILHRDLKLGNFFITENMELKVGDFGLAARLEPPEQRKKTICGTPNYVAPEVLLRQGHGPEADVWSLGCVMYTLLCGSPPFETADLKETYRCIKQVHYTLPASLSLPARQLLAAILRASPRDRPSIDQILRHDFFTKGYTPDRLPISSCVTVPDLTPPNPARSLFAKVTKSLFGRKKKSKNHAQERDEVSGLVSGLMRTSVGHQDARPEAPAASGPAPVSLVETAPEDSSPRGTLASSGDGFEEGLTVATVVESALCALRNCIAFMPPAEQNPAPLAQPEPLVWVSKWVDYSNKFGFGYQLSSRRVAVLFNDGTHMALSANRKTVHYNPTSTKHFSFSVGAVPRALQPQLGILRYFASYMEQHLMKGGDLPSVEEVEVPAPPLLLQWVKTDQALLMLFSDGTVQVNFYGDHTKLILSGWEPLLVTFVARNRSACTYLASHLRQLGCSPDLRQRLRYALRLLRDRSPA
High affinity nerve growth factor receptor, sequence (P04629 33-796 limits assumed): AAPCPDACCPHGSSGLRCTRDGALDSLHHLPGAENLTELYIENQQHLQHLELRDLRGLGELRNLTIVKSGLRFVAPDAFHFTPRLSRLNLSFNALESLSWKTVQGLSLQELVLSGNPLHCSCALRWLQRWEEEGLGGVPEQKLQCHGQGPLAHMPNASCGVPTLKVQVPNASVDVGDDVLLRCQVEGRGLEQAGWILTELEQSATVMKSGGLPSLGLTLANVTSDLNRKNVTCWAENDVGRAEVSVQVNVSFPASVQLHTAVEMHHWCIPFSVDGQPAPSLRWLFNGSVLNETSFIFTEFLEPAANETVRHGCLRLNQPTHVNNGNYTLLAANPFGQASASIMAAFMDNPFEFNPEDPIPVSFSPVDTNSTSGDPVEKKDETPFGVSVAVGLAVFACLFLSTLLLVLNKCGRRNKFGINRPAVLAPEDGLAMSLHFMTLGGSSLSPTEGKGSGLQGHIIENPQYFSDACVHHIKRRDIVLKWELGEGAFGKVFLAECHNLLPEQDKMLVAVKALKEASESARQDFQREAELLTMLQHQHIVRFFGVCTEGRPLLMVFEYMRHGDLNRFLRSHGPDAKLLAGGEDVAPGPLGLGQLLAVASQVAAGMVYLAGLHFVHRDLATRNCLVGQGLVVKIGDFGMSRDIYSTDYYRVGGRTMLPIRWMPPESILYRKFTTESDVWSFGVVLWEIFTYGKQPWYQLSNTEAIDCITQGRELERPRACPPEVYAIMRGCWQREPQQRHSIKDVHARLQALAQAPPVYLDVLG

For `CCN(CC)CCCCNc1ncc2cc(-c3cc(OC)cc(OC)c3)c(NC(=O)NC(C)(C)C)nc2n1`, the % of control [1] was 100%.

Work on `COc1cc(N(C)c2ccnc3ccc(C(F)(F)F)cc23)cc(OC)c1OC` yielded a % binding [2] of 72%, a % binding [3] of 80% and a % binding [4] of 96%.

`Cn1cc(-n2cnc3c(NCc4nc5cc(Cl)c(Cl)cc5[nH]4)nc(N4CCOCC4)nc32)cn1` was tested, and the % of control [5] was 0.242%.

With `Cc1cc(CN)cc(C)c1-c1ncn(C)c1-c1cncn1C` the dTM [6] was -1.68 K.

For `CC[C@@H]1[C@H](F)C(=O)N[C@@H]1COc1nccc2cc(C(N)=O)c(OC)cc12` [ZIMLOVISERTIB], the % of inhibition ([7]; at 0.01 µM) was -6.6%, the % of inhibition ([7]; at 0.04 µM) was 20.3% and the % of inhibition ([7]; at 0.2 µM) was 53%. It also gave a % of inhibition ([7]; at 1 µM) of 77.8%, a % of inhibition ([7]; at 5 µM) of 94.8% and a % of inhibition [8] of -107%.

For `C=CC(=O)Nc1cc(-n2c(=O)ccc3cnc4ccc(-c5ccc(NS(C)(=O)=O)cc5)cc4c32)ccc1C`, the % of control ([9]; at 1 µM) was 12% and the % of control ([9]; at 10 µM) was 100%.
